Data set [1] deals with Phytophthora infestans. It is filed as in vivo, Phytophthora infestans (on tomato plants cv Prof. Rudloff). The note with it: soil drench 2 days before infection, tomato.
Data set [2] in a line: Water solubility. In kind it is physicochemical.
Data set [3] relates to Phytophthora infestans. The following applies: sunlight excluded; only the Z-isomer; reported in Brighton Crop Protection Conference, 1988, 17-24; cited from earlier work.
In data set [4] the test system is tomato plants. The note with it: in vivo.
[5] abbreviates: 6.25 ppm active ingredient (0.11 kg/ha).
[6] abbreviates: 12.5 ppm active ingredient (0.2 kg/ha).
[7] abbreviates: 25 ppm active ingredient (0.44 kg/ha).
Where [8] appears, read: 50 ppm active ingredient (0.88 kg/ha).
Setting [9] is: 100 ppm active ingredient (1.76 kg/ha).

Values after ≈ are worked out from the molar mass of the structure shown. Read-outs that look alike come from different tables or passages of the source.

What is called solubility is the concentration that dissolves in the medium under given conditions. A low value points to a poorly soluble substance. As for `COc1ccc(/C(=C/C(=O)N2CCOCC2)c2ccc(Cl)cc2)cc1OC` [E-isomer], the “Activity in % (ABBOTT formula, diseased leaf area)” value (“Activity in %” below) in data set [1] (setting [5]) turned out to be 16%; in data set [1] (setting [6]), 47%; in data set [1] (setting [7]), 71%; in data set [1] (setting [8]), 94%; in data set [1] (setting [9]), 97%. In data set [2], this molecule yielded a solubility of 30 µg/mL (≈ 77.3 µM).

`COc1ccc(C(=CC(=O)N2CCOCC2)c2ccc(Cl)cc2)cc1OC` [E/Z 50:50, 4-[3-(4-chlorophenyl)-3-(3,4-dimethoxyphenyl)-acryloyl]morpholine]: the “Activity in %” value in data set [1] (setting [5]) was found to be 91%; in data set [1] (setting [6]) it was 98%; in data set [1] (setting [7]), 100%; in data set [1] (setting [8]), 100%; in data set [1] (setting [9]), 100%.

Regarding `COc1ccc(/C(=C\C(=O)N2CCOCC2)c2ccc(Cl)cc2)cc1OC` [Z-isomer, Z-isomer of 4-[3-(4-chlorophenyl)-3-(3,4-dimethoxyphenyl)acryloyl]morpholine], in data set [3], the fungitoxicity in vitro entry is “fungitoxic”. In addition, the “Activity in %” value in data set [1] (setting [5]), in data set [1] (setting [6]), in data set [1] (setting [7]), in data set [1] (setting [8]) and in data set [1] (setting [9]) was 100% in each case. This molecule had a solubility in data set [2] of 7 µg/mL (≈ 18 µM). For the same molecule, the “initial concentrations in the leaves, Z-isomer relative to E-isomer” value in data set [4] is listed as “about 5 times higher”.

The record behind these values is patent US5656630A, “Method of combating fungus” (American Cyanamid Company, priority 1993, dated 1997).
